One compound from paper PMC7719179, “Small molecule inhibition of Dynamin-dependent endocytosis targets multiple niche signals and impairs leukemia stem cells” (Nature Communications, 2020) can be followed below.

As usually defined, the IC50 is the concentration that inhibits the measured activity by half.

Experiment [1] concerns IL-7 signalling (pStat5) in Ba/F3-IL7R cells. The experiment is described as follows: IL-7-induced phospho-Stat5 in Ba/F3-IL7R cells (phosphoflow). Format: cell-based, murine. The settings on record: for pStat5 (MFI): replicates. On the procedure:
(§1) Ba/F3 cells (kindly provided by a person from The Walter and Eliza Hall Institute of Medical Research) were infected with pMIG-R1/Il7r retroviral supernatants produced in 293T cells, and transduced cells were sorted with a BD Influx (BD Australia) and selected by culture in medium supplemented with 5 ng/mL rmIL-7 (#217-17, Pepro Tech, Rocky Hill NJ, USA) for 7 days. Ba/F3 cells stably expressing Il7r (Ba/F3-IL7R) were infected with TxTCPVIR-Stat5-CA retroviral supernatants produced in 293T. Cell sorting was performed with a BD Influx and transduced cells were treated with doxycycline for 48 h to induce the expression of the Stat5-CA-T2A-mCherry fusion protein.
Phosphoflow analysis was performed as previously described. Briefly, 2 × 10^6 cells stained for surface markers were subsequently resuspended into PBS 1× + 4% v/v paraformaldehyde and incubated for 10 min at 4 °C for fixation. Fixed cells were washed twice using PBS 1×, then resuspended in pre-chilled at −20 °C Perm Buffer III (BD Pharmingen) and incubated 30 min at 4 °C for permeabilization. Cells were washed twice using PBS 1× and incubated overnight at 4 °C in PBS 1× + 2% v/v fetal calf serum (FCS) with Cell Signalling purified antibodies (Genesearch Pty Ltd, Arundel QLD, Australia) against pSTAT5 (Tyr694; #9359), phospho-p38 MAPK (Thr180/Tyr182; #4511), phospho-p44/42 (Erk1/2; #9102), phospho-S6 (Ser235/236; #4856) and phospho-Akt (Ser473; #9271) or isotype control. For intracellular HES1 detection, cells stained for surface markers were subsequently fixed and permeabilized using the BD Cytofix/Cytoperm^TM Kit and incubated overnight at 4 °C in PBS 1× + 2% v/v FCS with a purified antibody against HES1 (D6PU; #11988, Cell Signalling) or isotype control. After staining with primary antibodies for phosphoflow or intracellular detection, cells were incubated in permeabilization buffer with donkey Alexa Fluor 488-conjugated anti-rabbit secondary antibody (A-21206, lot #1910751, Molecular Probes, Invitrogen) or goat Alexa Fluor 546-conjugated anti-rabbit secondary antibody (A-11035, lot #1904467, Molecular Probes, Invitrogen) for 1 h on ice, and washed twice in PBS 1×. Fluorescence-activated cell sorting (FACS) analysis was performed using LSRII and LSR Fortessa cytometers, following the gating strategies described in Supplementary Fig. 11. Cell sorting was performed with a FACSAria or BD Influx.
For in vitro IL-7 stimulation assays, cells were starved in serum-free DMEM at 37 °C, then incubated with either vehicle or Dynole 34-2 or Ruxolitinib (INCB018424; #S1378, Selleckchem), or DAPT (GSI-IX; #S2215, Selleckchem) resuspended in DMSO for 1 h. Thymocytes were subsequently stimulated with 25 ng/mL IL-7 at 37 °C for 20 min and washed twice using cold PBS 1×. Cells were incubated with 25 ng/mL Rat IgG (Sigma-Aldrich Pty Ltd, Castle Hill NSW, Australia) and with a PE-conjugated antibody for detection of IL-7R (CD127) for 1 h on ice, as described in the FACS analysis section. PE-conjugated isotype was used as negative control. Cells were washed twice, fixed and phosphoflow analysis performed as described in the FACS analysis section. The analysis was performed in triplicate and the mean fluorescence intensity (MFI) observed without stimulation was reported as 100%.

The subject of the next experiment is Ba/F3-IL7R cells. In words: Survival of IL-7-dependent Ba/F3-IL7R cells. Format: cell-based, murine. The note with it: for Survival (%) over DMSO control, reported as 100%: Ba/F3-IL7R cells, replicates. On the procedure:
as §1
Flow cytometry analyses were performed as previously described[10],[86] on single-cell suspensions stained using BD Pharmingen antibodies (BD Australia, North Ryde NSW, Australia) against mouse CD4 (RM4-5), CD8 (53-6.7), CD25 (PC61.5), CD44 (IM7), CD45.1 (A20), CD45.2 (104), Thy1.2 (53-2.1; #561616), TCRβ (H57-597), CD117 (ACK45), CD135 (A2F10.1), CD150 (TC15-12F12.2; #562373), B220 (RA3-6B2; #563708), CD3 (145-2C11; #563004), CD19 (ID3; #557655), Gr-1 (RB6-8C5; #563299 and #565033), CD11b (M1/70; #563015 and #560455), Ter119 (Ter119; #565523 and #557909), Sca-1 (D7; #558160) and an eBioscience antibody (eBioscience, Invitrogen) against mouse NOTCH1 (22E5). DN3 populations and IL-7R were stained using BioLegend antibodies (Australian Biosearch, Balcatta WA, Australia) against mouse CD28 (E18) and CD127 (A7R34), respectively. Apoptosis was measured using an antibody against AnnexinV (#556420, BD Australia) and the […] Sytox Blue (BD Australia) following the manufacturer’s protocol.

The test system of experiment [2] is AML01-307 and AML18 patient-derived xenografts. The experiment is described as follows: Survival (Kaplan-Meier) and leukemia growth delay in AML01-307 and AML18 xenograft recipients. Format: in vivo, human. The note with it: PDX AML01-307. The procedure: Patient-derived xenograft models were established as previously described[97],[98]. All experiments were pre-approved by the Human Research Ethics Committee of the University of New South Wales (UNSW), the UNSW Animal Care and Ethics Committee, the Alfred Health Human Ethics Committee and the AMREP Animal Ethics Committee. For transplantation assays, 10^6 splenocytes harvested from successfully engrafted primary human ETP-ALL or T-ALL xenografts were injected into nonobese diabetic/severe combined immunodeficient (NOD.Cg-Prkdc^scid, also termed NOD/SCID) or NOD/SCID/Il2rg^tm1wjl/SzJ (NSG) mice[99]. Moreover, 1.5 × 10^6 cells splenocytes harvested from successfully engrafted patient-derived AML xenografts were injected into nonobese diabetic/severe immunodeficient (NOD.Cg-Rag1^tm1MomIl2rg^tm1wjl/SzJ, also termed NRG) mice expressing human IL-3, human GM-CSF and human SCF from the SGM3 triple transgene (NRGS)[100]. Engraftment into recipients was monitored by FACS analysis of peripheral blood as previously described. […] Both males and females were used. […] Kaplan–Meier survival and statistical analyses were performed using GraphPad Prism. 6.0 software (GraphPad Software, Inc.). […]
For orientation: A xenograft is tissue or cells of one species grown in another, often human tumour cells in immunodeficient mice.

“And” between values parts separate entries of the source, which are not always exact repeats. Equal values may be shown once.

Consider `CCCCCCCCNC(=O)C(C#N)=Cc1cn(CCCN(C)C)c2ccccc12` [Dynole 34-2, 2-Cyano-N-octyl-3-(1-(3-dimethylaminopropyl)-1H-indol-3-yl)-acrylamide], for which the “pStat5 (MFI)” value in experiment [1] (Ba/F3-IL7R cells, +IL-7, Dynole 34-2 0.2) was 2033 MFI and 1947 MFI and 1891 MFI; in experiment [1] (Ba/F3-IL7R cells, +IL-7, Dynole 34-2 1.0) it was 1526 MFI and 1732 MFI and 1712 MFI; in experiment [1] (Ba/F3-IL7R cells, +IL-7, Dynole 34-2 5.0), 1296 MFI and 1207 MFI and 1690 MFI; in experiment [1] (Ba/F3-IL7R cells, +IL-7, Dynole 34-2 10.0), 1304 MFI and 1113 MFI and 1201 MFI; in experiment [1] (Ba/F3-IL7R cells, +IL-7, Dynole 34-2 25.0) it was 1259 MFI and 1141 MFI and 1161 MFI. In addition, the “inhibition of IL-7 signalling as measured by loss of phospho-Stat5” value in experiment [1] (Ba/F3-IL7R cells, result in words) was “dose-dependent inhibition”. Also, the IC50 in experiment [1] (Mus musculus, Ba/F3-IL7R cells + IL-7, flow cytometry, read-out: IC50, inhibition of IL-7 signalling (pStat5)) came to 4.29 ± 0.77 µM. Besides, the “Survival (%) over DMSO control, reported as 100%” value is 98.98% and 96.19% and 98.31% and 99.95% and 64.95% and 22.36% and 89.89% and 75.78% and 97.73% and 100.16% in the experiment on Ba/F3-IL7R cells (+IL-7, Dynole 34-2 0.2 (head prints mM)); 96.00% and 88.79% and 100.24% and 102.05% and 16.85% and 13.04% and 78.86% and 82.29% and 101.66% and 91.15% in the experiment with Ba/F3-IL7R cells (+IL-7, Dynole 34-2 1.0 (head prints mM)); 81.60% and 25.70% and 92.65% and 90.92% and 25.47% and 16.90% and 48.81% and 60.17% and 57.90% and 33.60% in the experiment on Ba/F3-IL7R cells (+IL-7, Dynole 34-2 5.0 (head prints mM)); 1.62% and 1.82% and 0.05% and 0.27% and 26.62% and 22.03% and 44.15% and 40.27% and 4.53% and 9.16% with Ba/F3-IL7R cells (+IL-7, Dynole 34-2 10.0 (head prints mM)); 1.30% and 1.60% and 0.00% (2×) and 24.81% and 18.62% and 3.40% and 4.14% and 4.55% and 3.04% in the experiment with Ba/F3-IL7R cells (+IL-7, Dynole 34-2 25.0 (head prints mM)). In the experiment with Ba/F3-IL7R cells (result in words), the “cell death of Ba/F3-IL7R cells” value is “induced cell death in a dose-dependent manner”. In addition, the Time to leukemia in experiment [2] is 7 weeks and 8.71 weeks and 8.57 weeks and 7.57 weeks and 8.43 weeks.
